The test deals with T1, human GIVA cPLA2 (Homo sapiens, UniProt P47712).
T1 sequence (P47712 1-749): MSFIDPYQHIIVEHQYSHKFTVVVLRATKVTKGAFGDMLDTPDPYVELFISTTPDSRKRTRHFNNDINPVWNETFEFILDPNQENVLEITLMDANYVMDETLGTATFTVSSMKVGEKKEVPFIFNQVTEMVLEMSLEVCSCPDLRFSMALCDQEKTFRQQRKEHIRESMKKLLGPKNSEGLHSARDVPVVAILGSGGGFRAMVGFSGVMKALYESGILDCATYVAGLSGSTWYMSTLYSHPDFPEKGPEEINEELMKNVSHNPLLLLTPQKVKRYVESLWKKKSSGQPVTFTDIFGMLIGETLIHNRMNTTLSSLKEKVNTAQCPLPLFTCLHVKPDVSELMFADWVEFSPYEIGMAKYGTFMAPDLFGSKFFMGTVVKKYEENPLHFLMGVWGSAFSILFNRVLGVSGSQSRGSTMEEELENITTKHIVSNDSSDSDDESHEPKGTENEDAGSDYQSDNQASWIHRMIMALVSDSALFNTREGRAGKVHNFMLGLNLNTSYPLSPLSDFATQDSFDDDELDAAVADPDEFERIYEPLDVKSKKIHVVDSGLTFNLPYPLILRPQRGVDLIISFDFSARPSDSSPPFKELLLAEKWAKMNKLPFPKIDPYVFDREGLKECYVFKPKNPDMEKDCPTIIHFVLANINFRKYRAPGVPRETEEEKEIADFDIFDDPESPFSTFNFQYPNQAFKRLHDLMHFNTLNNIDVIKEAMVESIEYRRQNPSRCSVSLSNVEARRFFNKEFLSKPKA
The test can be described thus: mixed micelle-based modified Dole assay, GIVA cPLA2 inhibition. Format: biochemical. The settings on record: mole fraction of inhibitor in total substrate interface giving 50% inhibition.

For the molecule `CCCCCCCCCCCCCCCC(=O)C(F)(F)F` [compound 6, palmitoyl trifluoromethyl ketone, reference compound], the “GIVA cPLA2 XI(50)” value came out at 0.0223 mole fraction.
For `CCCCCCCCCCCCCCC(F)C(=O)C(F)(F)F` (centres unmarked) [compound 26, 1,1,1,3-Tetrafluoro-heptadecan-2-one] the value was 0.0167 mole fraction.

The values are drawn from publication PMC2649009 (Journal of medicinal chemistry, 2008).
